Experimental data as given in the NIST ThermoML archive (doi:10.1016/j.jct.2008.12.003).
Numbers after ± are expanded uncertainties.

Details: 101.33 kPa, Liquid, Pycnometric method

Row | Structure (SMILES) | mass density (303.15 K) | mass density (313.15 K) | mass density (323.15 K) | mass density (333.15 K) | mass density (343.15 K)
1 | OCCCOCCCO [4-oxa-1,7-heptanediol] | 1014 ± 1 kg/m3 | 1007 ± 1 kg/m3 | 999 ± 1 kg/m3 | 991 ± 1 kg/m3 | 984 ± 1 kg/m3
2 | OCCOCCO [diethylene glycol] | 1109 ± 1 kg/m3 | 1103 ± 1 kg/m3 | 1095 ± 1 kg/m3 | 1088 ± 1 kg/m3 | 1081 ± 1 kg/m3
